In the supplement of paper PMC10307832:

Experiments:
Test in all cases: relative viability (nuclei count vs DMSO), 5 days (fraction); higher = more cells survive
[1] = compound: C[C@]12O[C@H](C[C@]1(O)CO)n1c3ccccc3c3c4c(c5c6ccccc6n2c5c31)CNC4=O [Lestaurtinib] + CC(C)C[C@H](NC(=O)[C@H](Cc1ccccc1)NC(=O)c1cnccn1)B(O)O [Bortezomib] (partner 0.002 µM)
Method in brief: (§1)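 Medians of duplicate plates are given as relative viability. That measure is the nuclei count in treated wells divided by the count in vehicle wells. Counts were taken on 4× images of lung cancer cell lines in 1536-well plates, 5 days after pin-tool dosing the day after seeding with one drug alone or a fixed anchor-drug dose plus five library-drug doses (not always all listed) in √10 steps.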

[2] = compound: C1/C(=C\C2=CC=CS2)/C(=O)/C(=C/C3=CC=CS3)/C1 + N=C(N)NC(=N)NCCc1ccccc1 [Phenformin] (partner 250 µM)
Method in brief: as §1

[3] = compound: C1/C(=C\C2=CC=CS2)/C(=O)/C(=C/C3=CC=CS3)/C1 + C[C@@H](Oc1cc(-c2cnn(C3CCNCC3)c2)cnc1N)c1c(Cl)ccc(F)c1Cl [Crizotinib] (partner 1 µM)
Method in brief: as §1

[4] = compound: C1=CC(=CC=C1C2=CC(=C(S2)NC(=O)N)C(=O)N)F [TPCA-1] + Cc1nc(Nc2ncc(C(=O)Nc3c(C)cccc3Cl)s2)cc(N2CCN(CCO)CC2)n1 [Dasatinib] (partner 0.075 µM)
Method in brief: as §1

Cell Line | relative viability ([1]; first compound 0.005 µM) | relative viability ([1]; first compound 0.01581 µM) | relative viability ([1]; first compound 0.05 µM) | relative viability ([1]; first compound 0.1581 µM) | relative viability ([1]; first compound 0.5 µM) | relative viability ([2]; first compound 0.2 µM) | relative viability ([2]; first compound 0.6325 µM) | relative viability ([2]; first compound 2 µM) | relative viability ([2]; first compound 6.325 µM) | relative viability ([2]; first compound 20 µM) | relative viability ([3]; first compound 0.2 µM) | relative viability ([3]; first compound 0.6325 µM) | relative viability ([3]; first compound 2 µM) | relative viability ([3]; first compound 6.325 µM) | relative viability ([3]; first compound 20 µM) | relative viability ([4]; first compound 0.04 µM) | relative viability ([4]; first compound 0.1265 µM) | relative viability ([4]; first compound 0.4 µM) | relative viability ([4]; first compound 1.265 µM) | relative viability ([4]; first compound 4 µM)
HCC-44 | 0.925 | 0.997 | 0.873 | 1.06 | 0.683 | 0.161 | 0.27 | 0.278 | 0.21 | 0.161 | 0.802 | 0.862 | 0.712 | 0.734 | 0.798 |  |  |  |  | 
HCC-78 | 0.47 | 0.488 | 0.425 | 0.283 | 0.29 | 0.654 | 0.78 | 0.945 | 0.603 | 0.695 | 0.334 | 0.35 | 0.354 | 0.313 | 0.327 | 0.485 | 0.452 | 0.402 | 0.413 | 0.297
HCC-366 | 1.13 | 1.11 | 0.565 | 1.05 | 0.43 | 0.569 | 0.638 | 0.625 | 0.55 | 0.613 | 0.421 | 0.651 | 0.525 | 0.451 | 0.513 | 0.729 | 0.55 | 0.664 | 0.539 | 0.233
HCC-827 | 0.923 | 1.08 | 0.989 | 1.11 | 0.647 | 0.426 | 0.414 | 0.433 | 0.411 | 0.388 | 0.961 | 0.898 | 0.949 | 0.635 | 0.978 | 0.299 | 0.199 | 0.391 | 0.293 | 0.155
HOP-62 | 0.863 | 0.707 | 0.913 | 1.42 | 0.696 | 0.686 | 0.714 | 0.531 | 0.664 | 0.672 | 0.985 | 1.07 | 1 | 0.712 | 0.804 | 0.874 | 0.642 | 0.689 | 0.539 | 0.671
IA-LM | 1.08 | 1.18 | 1.08 | 0.943 | 0.339 |  |  |  |  |  | 1.19 | 0.721 | 0.651 | 0.747 | 1 |  |  |  |  | 
LC-2-ad | 0.966 | 1.2 | 0.882 | 0.407 | 0.329 | 0.632 | 0.584 | 0.671 | 0.555 | 0.605 | 0.488 | 0.503 | 0.454 | 0.368 | 0.484 | 0.79 | 0.417 | 0.544 | 0.524 | 0.212
LCLC-97TM1 |  | 0.723 | 0.299 | 0.282 | 0.226 | 0.389 | 0.473 | 0.437 | 0.476 | 0.482 | 0.328 | 0.433 | 0.453 | 0.252 | 0.462 | 0.94 | 0.679 | 0.772 | 0.658 | 0.717
LCLC-103H | 1.09 | 1.07 | 0.943 | 0.908 | 0.56 | 0.326 | 0.329 | 0.361 | 0.288 | 0.356 | 1.09 | 1.03 | 1.08 | 0.906 | 1.03 | 0.518 | 0.447 | 0.481 | 0.397 | 0.465
LK-2 |  |  |  |  |  | 0.576 | 0.505 | 0.622 | 0.379 | 0.483 | 0.249 | 0.225 | 0.218 | 0.215 | 0.242 | 0.255 | 0.226 | 0.386 | 0.241 | 0.237
NCI-H358 |  |  |  |  |  | 0.358 | 0.303 | 0.428 |  | 0.281 | 0.623 | 0.661 | 0.599 | 0.438 | 0.693 | 0.193 | 0.135 | 0.173 | 0.152 | 0.117
NCI-H522 |  |  |  |  |  | 0.677 | 0.649 | 0.662 | 0.644 | 0.651 |  |  |  |  |  | 0.993 | 0.833 | 1.11 | 0.844 | 0.788
NCI-H1299 | 1.04 | 0.982 | 1.03 | 0.843 | 0.751 |  |  |  |  |  | 0.958 | 0.976 | 0.928 | 0.903 | 0.589 |  |  |  |  | 
NCI-H1395 |  |  |  |  |  | 0.448 | 0.484 | 0.505 | 0.483 | 0.465 |  |  |  |  |  | 0.478 | 0.39 | 0.4 | 0.421 | 0.344
NCI-H1623 |  |  |  |  |  | 0.644 | 0.577 | 0.502 | 0.599 | 0.59 |  |  |  |  |  | 0.523 | 0.466 | 0.576 | 0.62 | 0.336
NCI-H1703 | 0.31 | 0.359 | 0.308 | 0.137 | 0.117 |  |  |  |  |  | 0.94 | 1.12 | 0.919 | 0.585 | 0.737 |  |  |  |  | 
NCI-H1793 |  |  |  |  |  | 0.375 | 0.351 | 0.515 | 0.337 | 0.355 |  |  |  |  |  | 0.422 |  | 0.342 | 0.365 | 0.211
NCI-H1944 |  |  |  |  |  | 0.232 | 0.207 | 0.2 | 0.18 | 0.182 | 1.18 | 1.12 | 1.09 | 1.01 | 0.977 | 0.251 | 0.207 | 0.217 | 0.198 | 0.151
NCI-H2170 |  |  |  |  |  | 0.466 | 0.484 | 0.426 | 0.405 | 0.408 | 1.29 | 1.29 | 1.26 | 1.03 | 1.07 | 0.676 | 0.56 | 0.632 | 0.581 | 0.269
NCI-H2342 |  |  |  |  |  | 0.535 | 0.63 | 0.689 | 0.524 | 0.519 |  |  |  |  |  | 0.323 | 0.323 | 0.276 | 0.241 | 0.294
SK-MES-1 |  |  |  |  |  | 0.722 | 0.742 | 0.605 | 0.644 | 0.546 | 0.978 | 1.04 | 0.903 | 0.879 | 0.917 | 0.491 | 0.251 | 0.333 | 0.224 | 0.152
SW 900 |  |  |  |  |  | 0.613 | 0.551 | 0.875 | 0.69 | 0.541 |  |  |  |  |  | 0.768 | 0.526 | 0.685 | 0.307 | 0.583
